Measured values published in US20250115598A1 (Anaxis Pharma Pty Ltd, priority 2021, published 2025).

How the values were obtained:
endogenous MLKL in U937 = endogenous MLKL in U937 (Homo sapiens (Human), UniProt Q8NB16); assay: Degradation assay: endogenous MLKL in U937 (western blot); conditions: U937, 24 h incubation, read-out: Degradation of endogenous MLKL in U937 (DC50 cell-based assay)
Experimental: Degradation Assay: Screening Compounds Procedure to Evaluate the Activity of Compounds in Degrading Endogenous MLKL in Human and Mouse Cell
The mouse dermal fibroblast (MDF) cell line was seeded the day before the experiment in a 24-well plate at a cell density of […] per well in a volume of 0.5 mL per well and left to attach overnight. The human monocyte cell line (U937) was seeded on the day of the experiment in a 24-well plate at a cell density of […] per well in a volume of 0.5 mL per well.
The compound was diluted in DMSO with a starting concentration of 10 mM and titrated stepwise with a dilution of 1:5. 0.5 μL of the compound dilution was added to the appropriate well to achieve a final concentration of 10; 2; 0.4; 0.08 and 0.016 μM. A DMSO only well was included as control.
The cells were incubated for 24 h in the presence of the compound at 37° C. and 10% CO2.
After the 24 h incubation period, the medium was removed and cells washed with 0.5 mL PBS. The cells were then lysed directly in 60 μL of 1×SDS gel loading buffer.
The cell lysate was heat-denatured at […] for 10 min. 10 μL of lysate per well were run on 18-well 4-15% Criterion TGX stain free gels (BIO-RAD). The proteins were then transferred onto nitrocellulose membrane with a wet transfer protocol in the Criterion Blotter (BIO-RAD).
Membranes were blocked with 5% skim milk in TBST. Primary antibody against MLKL (clone 3H1, MABC604 Merck) was used at 1:2000 dilution in TBST with 1% BSA and left shaking over night at 4° C. After washes with TBST, the membranes were incubated with goat anti-rat IgG HRP-conjugated antibody (Southern Biotech) in 1% skim milk TBST at 1:10000 dilution for 1 h at room temperature. After TBST washes the bands were imaged on the ChemiDoc MP Imaging System (BIO-RAD) with Immobilion Western Chemiluminescent HRP Substrate Forte (Millipore). The loading control GAPDH was probed for with rabbit anti-GAPDH (CST 14C10) at 1:2000 dilution in 1% BSA TBST over night at 4° C. TBST washes were followed by incubation with goat anti-rabbit IgG HRP-conjugated antibody (Southern Biotech) in 1% skim milk TBST at 1:10000 dilution for 1 h at room temperature followed by TBST washes. The signal was detected as described above.
The band intensity was measured in the ImageLab Software (BIO-RAD) and the MLKL values adjusted for loading with GAPDH. The percentage of degradation was calculated by normalizing the compound treated values to the DMSO only control.

endogenous MLKL in MDF = endogenous MLKL in MDF (Mus musculus (Mouse), UniProt Q9D2Y4); assay: Degradation assay: endogenous MLKL in MDF (western blot); conditions: MDF cells, 24 h incubation with compound, MLKL adjusted for loading with GAPDH, normalized to DMSO only control, read-out: Degradation of endogenous MLKL in MDF (DC50 cell-based assay)
endogenous MLKL in MDF, sequence (Q9D2Y4 whole entry): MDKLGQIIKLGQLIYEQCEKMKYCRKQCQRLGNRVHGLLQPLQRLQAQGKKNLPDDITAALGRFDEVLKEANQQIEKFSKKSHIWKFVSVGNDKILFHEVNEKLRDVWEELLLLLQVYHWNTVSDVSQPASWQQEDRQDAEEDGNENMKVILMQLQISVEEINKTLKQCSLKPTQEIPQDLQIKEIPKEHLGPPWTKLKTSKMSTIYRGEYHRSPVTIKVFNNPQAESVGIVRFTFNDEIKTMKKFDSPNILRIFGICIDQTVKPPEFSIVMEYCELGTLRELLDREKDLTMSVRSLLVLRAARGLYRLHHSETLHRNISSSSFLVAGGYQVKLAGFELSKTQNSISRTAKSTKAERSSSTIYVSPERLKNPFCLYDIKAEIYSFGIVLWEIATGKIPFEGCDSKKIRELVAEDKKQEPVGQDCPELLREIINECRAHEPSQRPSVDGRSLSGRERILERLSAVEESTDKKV
Outline: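 Western blot band intensity of MLKL, adjusted to GAPDH loading and normalized to DMSO-only wells, gave percent degradation. Compound exposure lasted 24 h at final concentrations of 10–0.016 μM in 1:5 steps, in mouse dermal fibroblasts or human U937 cells.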

human MLKL (full length) = human MLKL (full length) (Homo sapiens (Human), UniProt Q8NB16); assay: KINOMEscan binding assay, human MLKL (full length); conditions: hMLKL, Table 25; read-out: MLKL (KD)
human MLKL (full length), sequence (Q8NB16 whole entry, the tested form may be a part): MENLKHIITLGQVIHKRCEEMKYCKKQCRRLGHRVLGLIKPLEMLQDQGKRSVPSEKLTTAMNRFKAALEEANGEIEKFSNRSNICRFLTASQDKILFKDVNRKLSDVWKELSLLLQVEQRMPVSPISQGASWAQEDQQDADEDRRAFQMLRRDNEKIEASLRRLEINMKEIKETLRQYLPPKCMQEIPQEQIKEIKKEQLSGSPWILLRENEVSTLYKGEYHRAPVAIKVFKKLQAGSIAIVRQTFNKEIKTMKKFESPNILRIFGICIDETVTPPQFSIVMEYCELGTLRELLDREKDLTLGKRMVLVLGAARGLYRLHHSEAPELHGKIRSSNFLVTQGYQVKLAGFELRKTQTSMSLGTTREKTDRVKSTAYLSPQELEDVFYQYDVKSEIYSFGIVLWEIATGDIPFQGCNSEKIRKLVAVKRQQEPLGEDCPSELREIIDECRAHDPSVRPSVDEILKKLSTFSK
Outline: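 Competition binding format with qPCR detection. Kinases, either phage-fused from E. coli lysates or HEK-293-derived with a DNA tag, bound ligand-coated beads in the presence of compound (11 points, 3-fold steps, 1% DMSO, top usually 30,000 nM). Kd from nonlinear Hill fitting with slope −1.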

[1] = test system: Immortalised Mouse Dermal Fibroblasts (MDFs); assay: Cellular assay: inhibition of TSI induced necroptosis, CellTitre-Glo viability; conditions: Mus musculus, Fibroblast; MDF, 3 hours TSI cocktail, Table 27; read-out: Inhibition of TSI-induced necroptosis (IC50 cell-based assay) in MDF
Outline: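 Necroptosis induced for 3 h with TSI: rhTNF 100 ng/ml, Smac mimetic 500 nM, caspase inhibitor IDN-6556 10 μM. Mouse dermal fibroblasts had received compound (36 μM top, ten three-fold steps) 30 min beforehand. ATP-based viability scaled between untreated and TSI-only wells; IC50 taken as 4-parameter curve inflection.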

endogenous MLKL in U937, sequence (Q8NB16 whole entry): as the sequence (Q8NB16 whole entry, the tested form may be a part) above

DC50 (endogenous MLKL in U937)	DC50 (endogenous MLKL in MDF)	Kd (human MLKL (full length))	SMILES	IC50 [1]
1000 to 10000 nM	< 1000 nM	10 to 1000 nM	Cc1ncsc1-c1ccc(CNC(=O)[C@@H]2C[C@@H](O)CN2C(=O)[C@@H](NC(=O)C2(F)CC2)C(C)(C)C)c(OCCCCCCCCCn2cc(-c3cnc(N)c4c(-c5ccc(NS(=O)(=O)C(F)F)c(O[C@@H](C)c6ccc(F)cc6)c5)nn(C)c34)cn2)c1 [Compound 1041, (2S,4R)-N-[(2-{[9-(4-{4-amino-3-[4-(difluoromethanesulfonamido)-3-[(1S)-1-(4-fluorophenyl)ethoxy]phenyl]-1-methyl-1H-pyrazolo[4,3-c]pyridin-7-yl}-1H-pyrazol-1-yl)nonyl]oxy}-4-(4-methyl-1,3-thiazol-5-yl)phenyl)methyl]-1-[(2S)-2-[(1-fluorocyclopropyl)formamido]-3,3-dimethylbutanoyl]-4-hydroxypyrrolidine-2-carboxamide]	–
< 1000 nM	1000 to 10000 nM	10 to 1000 nM	Cc1ncsc1-c1ccc(CNC(=O)[C@@H]2C[C@@H](O)CN2C(=O)[C@@H](NC(=O)CCCCCOc2ccc(-c3cnc(N)c4c(-c5ccc(NS(=O)(=O)C(F)F)c(O[C@@H](C)c6ccc(F)cc6)c5)nn(C)c34)cn2)C(C)(C)C)cc1 [Compound 1050, (2S,4R)-1-[(2S)-2-{6-[(5-{4-amino-3-[4-(difluoromethanesulfonamido)-3-[(1S)-1-(4-fluorophenyl)ethoxy]phenyl]-1-methyl-1H-pyrazolo[4,3-c]pyridin-7-yl}pyridin-2-yl)oxy]hexanamido}-3,3-dimethylbutanoyl]-4-hydroxy-N-{[4-(4-methyl-1,3-thiazol-5-yl)phenyl]methyl}pyrrolidine-2-carboxamide]	–
< 1000 nM	< 1000 nM	< 10 nM	CCS(=O)(=O)Nc1ccc(-c2nn(C)c3c(-c4cnn(CCCCCCCOc5cccc6c5C(=O)N(C5CCC(=O)NC5=O)C6=O)c4)cnc(N)c23)cc1F (stereo not shown) [Compound 1059, N-(4-{4-amino-7-[1-(7-{[2-(2,6-dioxopiperidin-3-yl)-1,3-dioxo-2,3-dihydro-1H-isoindol-4-yl]oxy}heptyl)-1H-pyrazol-4-yl]-1-methyl-1H-pyrazolo[4,3-c]pyridin-3-yl}-2-fluorophenyl)ethane-1-sulfonamide]	–
1000 to 10000 nM	–	–	C[C@H](Oc1cc(-c2nn(C)c3c(-c4cnn(C5CCN(C(=O)C6CCCN(c7cccc8c7C(=O)N(C7CCC(=O)NC7=O)C8=O)C6)CC5)c4)cnc(N)c23)ccc1NS(=O)(=O)C(F)F)c1ccc(F)cc1 (stereo partly drawn) [Compound 1077, N-(4-{4-amino-7-[1-(1-{1-[2-(2,6-dioxopiperidin-3-yl)-1,3-dioxo-2,3-dihydro-1H-isoindol-4-yl]piperidine-3-carbonyl}piperidin-4-yl)-1H-pyrazol-4-yl]-1-methyl-1H-pyrazolo[4,3-c]pyridin-3-yl}-2-[(1S)-1-(4-fluorophenyl)ethoxy]phenyl)-1,1-difluoromethane-sulfonamide]	1000 to 10000 nM
< 1000 nM	–	< 10 nM	CN[C@@H](C)C(=O)N[C@H](C(=O)N1C[C@H](NC(=O)CCCCCCn2cc(-c3cnc(N)c4c(-c5ccc(NS(=O)(=O)C(F)F)c(O[C@@H](C)c6ccc(F)cc6)c5)nn(C)c34)cn2)C[C@H]1C(=O)Nc1c(F)cccc1F)C(C)(C)C [Compound 1101, (2S)-4-[7-(4-{4-amino-3-[4-(difluoromethanesulfonamido)-3-[(1S)-1-(4-fluorophenyl)ethoxy]phenyl]-1-methyl-1H-pyrazolo[4,3-c]pyridin-7-yl}-1H-pyrazol-1-yl)heptanamido]-N-(2,6-difluorophenyl)-1-[(2S)-3,3-dimethyl-2-[(2S)-2-(methylamino)propanamido]butanoyl]pyrrolidine-2-carboxamide]	–
< 1000 nM	< 1000 nM	–	Cc1ncsc1-c1ccc(C(COCC(=O)N2CCC(n3cc(-c4cnc(N)c5c(-c6ccc(NS(=O)(=O)C(F)F)c(O[C@@H](C)c7ccc(F)cc7)c6)nn(C)c45)cn3)CC2)NC(=O)[C@@H]2C[C@@H](O)CN2C(=O)[C@@H](NC(=O)C2(F)CC2)C(C)(C)C)cc1 (stereo partly drawn) [Compound 1104, (2S,4R)—N-(2-{2-[4-(4-{4-amino-3-[4-(difluoromethanesulfonamido)-3-[(1 S)-1-(4-fluorophenyl)ethoxy]phenyl]-1-methyl-1H-pyrazolo[4,3-c]pyridin-7-yl}-1H-pyrazol-1-yl)piperidin-1-yl]-2-oxoethoxy}-1-[4-(4-methyl-1,3-thiazol-5-yl)phenyl]ethyl)-1-[(2S)-2-[(1-fluorocyclopropyl)formamido]-3,3-dimethylbutanoyl]-4-hydroxypyrrolidine-2-carboxamide]	1000 to 10000 nM
< 1000 nM	< 1000 nM	< 10 nM	Cn1nc(-c2ccc(NS(=O)(=O)C(F)F)c(F)c2)c2c(N)ncc(-c3cnn(C4CCN(C(=O)[C@H]5C[C@H](Nc6cccc7c6C(=O)N(C6CCC(=O)NC6=O)C7=O)C5)CC4)c3)c21 (stereo partly drawn) [Compound 1114, N-{4-[4-amino-1-methyl-7-(1-{1-[(trans)-3-{[2-(2,6-dioxopiperidin-3-yl)-1,3-dioxo-2,3-dihydro-1H-isoindol-4-yl]amino}cyclobutanecarbonyl]piperidin-4-yl}-1H-pyrazol-4-yl)-1H-pyrazolo[4,3-c]pyridin-3-yl]-2-fluorophenyl}-1,1-difluoromethanesulfonamide]	–
< 1000 nM	< 1000 nM	–	C[C@H](Oc1cc(-c2nn(C)c3c(-c4cnn(C5CCN(C(=O)N6CC(Nc7cccc8c7C(=O)N(C7CCC(=O)NC7=O)C8=O)C6)CC5)c4)cnc(N)c23)ccc1NS(=O)(=O)C(F)F)c1ccc(F)cc1 (stereo partly drawn) [Compound 1124, N-[4-(4-amino-7-{1-[1-(3-{[2-(2,6-dioxopiperidin-3-yl)-1,3-dioxo-2,3-dihydro-1H-isoindol-4-yl]amino}azetidine-1-carbonyl)piperidin-4-yl]-1H-pyrazol-4-yl}-1-methyl-1H-pyrazolo[4,3-c]pyridin-3-yl}-2-[(1S)-1-(4-fluorophenyl)ethoxy]phenyl]-1,1-difluoromethanesulfonamide]	< 1000 nM

SMILES	DC50 (endogenous MLKL in U937)	DC50 (endogenous MLKL in MDF)	Kd (human MLKL (full length))	IC50 [1]
Cc1ncsc1-c1ccc(CNC(=O)[C@@H]2C[C@@H](O)CN2C(=O)[C@@H](NC(=O)COCCCCn2cc(-c3cnc(N)c4c(-c5ccc(NS(=O)(=O)C(F)F)c(O[C@@H](C)c6ccc(F)cc6)c5)nn(C)c34)cn2)C(C)(C)C)cc1 [Compound 1056, (2S,4R)-1-[(2S)-2-{2-[4-(4-{4-amino-3-[4-(difluoromethanesulfonamido)-3-[(1S)-1-(4-fluorophenyl)ethoxy]phenyl]-1-methyl-1H-pyrazolo[4,3-c]pyridin-7-yl}-1H-pyrazol-1-yl)butoxy]acetamido}-3,3-dimethylbutanoyl]-4-hydroxy-N-{[4-(4-methyl-1,3-thiazol-5-yl)phenyl]methyl}pyrrolidine-2-carboxamide]	< 1000 nM	1000 to 10000 nM	10 to 1000 nM	–
